Data: patent US11786534B2 (TAIHO PHARMACEUTICAL CO., LTD., priority 2019, dated 2023)

Assays:
[1] = biological target: T1, human EGFR (WT) (Homo sapiens, UniProt P00533); test: Inhibitory activity against EGFR (WT) kinase; format: biochemical; details: Test Example 1, Table 6; ATP 1.5 μM
T1 construct: purchased Carna Biosciences Inc., Japan
In short: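 Purified recombinant human wild-type EGFR kinase, with ATP at 1.5 μM final. Compound inhibition of kinase activity read out and fitted to give IC50 (nM).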

[2] = biological target: Ba/F3-EGFR (d746-750/T790M/C797S) (Homo sapiens, UniProt P00533, DEL746-750/T790M/C797S, cells depend on it); test: Growth inhibition of cell line expressing EGFR (d746-750/T790M/C797S); format: cell-based, mouse; details: Test Example 4, Table 13; same procedures as Test Example 2; read-out: BaF3_EGFR (d746-750/T790M/C797S) IC50 value
Source text: Test for inhibitory activity against the growth of cell lines expressing wild-type and mutated EGFRs (in vitro)
(1) Mouse cell line Ba/F3-EGFR (d746-750/T790M/C797S) transfected with and stably expressing EGFR (d746-750/T790M/C797S), mouse cell Ba/F3-EGFR (L858R/T790M/C797S) transfected with and stably expressing EGFR (L858R/T790M/C797S), and mouse cell line Ba/F3-EGFR (WT) transfected with and stably expressing wild-type EGFR were each suspended in RPMI-1640 cell culture medium (RPMI-1640, 10% FBS, 100 unit/ml penicillin, 0.1 mg/ml streptomycin). In the case of the mouse cell line Ba/F3-EGFR (WT), RPMI-1640 cell culture medium containing EGF at a final concentration of 50 ng/ml was used to suspend this cell line. It should be noted that the mouse cell line Ba/F3-EGFR (d746-750/T790M/C797S) transfected with and stably expressing EGFR (d746-750/T790M/C797S), the mouse cell line Ba/F3-EGFR (L858R/T790M/C797S) transfected with and stably expressing EGFR (L858R/T790M/C797S) and the mouse cell line Ba/F3-EGFR (WT) transfected with and stably expressing wild-type EGFR were prepared by using nucleotide sequences encoding the proteins of SEQ ID NOs: 1 and 2 in accordance with Test Example 1 in WO2018/079310, These cell suspensions were seeded in wells of 96-well flat -bottomed plates. The compounds of the present invention were dissolved in DMSO, and serial dilutions of these test compounds were prepared with DMSO (1000-fold of the final concentration). Each test compound solution in DMSO or DMSO alone was diluted with RPMI-1640 cell culture medium for each cell line, and this dilution was added to wells of the cell culture plate such that the final concentration of DMSO was 0.1%, followed by culture at 37° C. for 3 days in a 5% carbon dioxide gas-containing incubator. Before and after addition of each test compound solution in DMSO, the number of cells was counted using the CellTiter-Glo® system (Promega) on the basis of the protocol recommended by Promega.
In each cell line, the rate of cell growth inhibition was calculated according to the equation shown below in wells to which each test compound was added at different concentrations. Moreover, the inhibition rate at each concentration was plotted for each test compound, and the concentration of each test compound required to give 50% cell survival rate, i.e., IC50 (nM) was determined by curve fitting software XLfit (IDBS).
Cell survival rate (%)=T/C×100
T: emission intensity in a well cultured for 3 days after addition of a test compound solution
C: emission intensity in a well cultured for 3 days after addition of DMSO
In accordance with the same procedures as shown in Test Example 2, the compounds of the present invention were tested for their inhibitory activity against the growth of the cell hoes expressing wild-type and mutated EGFRs.

T1 sequence (P00533 25-1210): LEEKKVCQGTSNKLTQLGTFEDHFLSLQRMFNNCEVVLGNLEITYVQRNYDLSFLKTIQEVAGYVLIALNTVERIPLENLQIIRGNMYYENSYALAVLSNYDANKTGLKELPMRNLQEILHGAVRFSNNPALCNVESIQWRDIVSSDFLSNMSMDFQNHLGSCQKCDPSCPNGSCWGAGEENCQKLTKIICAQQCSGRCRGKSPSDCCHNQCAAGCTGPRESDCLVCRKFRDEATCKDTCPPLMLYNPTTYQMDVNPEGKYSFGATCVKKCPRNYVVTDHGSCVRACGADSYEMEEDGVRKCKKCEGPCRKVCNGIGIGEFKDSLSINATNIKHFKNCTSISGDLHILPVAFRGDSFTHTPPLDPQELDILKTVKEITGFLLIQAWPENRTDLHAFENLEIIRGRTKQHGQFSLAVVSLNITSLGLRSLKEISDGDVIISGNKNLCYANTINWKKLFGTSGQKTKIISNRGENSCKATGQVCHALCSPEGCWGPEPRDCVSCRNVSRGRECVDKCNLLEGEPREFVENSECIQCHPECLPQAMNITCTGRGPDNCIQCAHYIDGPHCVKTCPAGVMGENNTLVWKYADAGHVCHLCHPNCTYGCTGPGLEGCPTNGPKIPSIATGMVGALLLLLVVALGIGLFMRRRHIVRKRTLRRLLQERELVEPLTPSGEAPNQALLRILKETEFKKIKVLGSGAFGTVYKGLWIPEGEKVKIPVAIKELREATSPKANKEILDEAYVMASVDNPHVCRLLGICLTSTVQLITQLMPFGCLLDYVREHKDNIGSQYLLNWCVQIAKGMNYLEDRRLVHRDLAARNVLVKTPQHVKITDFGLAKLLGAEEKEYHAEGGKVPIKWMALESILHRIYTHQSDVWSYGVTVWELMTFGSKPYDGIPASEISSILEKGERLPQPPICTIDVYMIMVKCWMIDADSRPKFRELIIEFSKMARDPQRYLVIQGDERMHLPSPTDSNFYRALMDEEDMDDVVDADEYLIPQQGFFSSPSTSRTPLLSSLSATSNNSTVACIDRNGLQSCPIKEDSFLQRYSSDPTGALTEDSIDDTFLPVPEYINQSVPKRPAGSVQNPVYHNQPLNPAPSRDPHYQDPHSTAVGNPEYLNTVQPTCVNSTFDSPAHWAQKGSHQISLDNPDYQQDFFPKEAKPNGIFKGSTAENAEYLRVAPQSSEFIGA
Ba/F3-EGFR (d746-750/T790M/C797S), sequence (P00533 with tags, fused parts or gaps DEL746-750/T790M/C797S): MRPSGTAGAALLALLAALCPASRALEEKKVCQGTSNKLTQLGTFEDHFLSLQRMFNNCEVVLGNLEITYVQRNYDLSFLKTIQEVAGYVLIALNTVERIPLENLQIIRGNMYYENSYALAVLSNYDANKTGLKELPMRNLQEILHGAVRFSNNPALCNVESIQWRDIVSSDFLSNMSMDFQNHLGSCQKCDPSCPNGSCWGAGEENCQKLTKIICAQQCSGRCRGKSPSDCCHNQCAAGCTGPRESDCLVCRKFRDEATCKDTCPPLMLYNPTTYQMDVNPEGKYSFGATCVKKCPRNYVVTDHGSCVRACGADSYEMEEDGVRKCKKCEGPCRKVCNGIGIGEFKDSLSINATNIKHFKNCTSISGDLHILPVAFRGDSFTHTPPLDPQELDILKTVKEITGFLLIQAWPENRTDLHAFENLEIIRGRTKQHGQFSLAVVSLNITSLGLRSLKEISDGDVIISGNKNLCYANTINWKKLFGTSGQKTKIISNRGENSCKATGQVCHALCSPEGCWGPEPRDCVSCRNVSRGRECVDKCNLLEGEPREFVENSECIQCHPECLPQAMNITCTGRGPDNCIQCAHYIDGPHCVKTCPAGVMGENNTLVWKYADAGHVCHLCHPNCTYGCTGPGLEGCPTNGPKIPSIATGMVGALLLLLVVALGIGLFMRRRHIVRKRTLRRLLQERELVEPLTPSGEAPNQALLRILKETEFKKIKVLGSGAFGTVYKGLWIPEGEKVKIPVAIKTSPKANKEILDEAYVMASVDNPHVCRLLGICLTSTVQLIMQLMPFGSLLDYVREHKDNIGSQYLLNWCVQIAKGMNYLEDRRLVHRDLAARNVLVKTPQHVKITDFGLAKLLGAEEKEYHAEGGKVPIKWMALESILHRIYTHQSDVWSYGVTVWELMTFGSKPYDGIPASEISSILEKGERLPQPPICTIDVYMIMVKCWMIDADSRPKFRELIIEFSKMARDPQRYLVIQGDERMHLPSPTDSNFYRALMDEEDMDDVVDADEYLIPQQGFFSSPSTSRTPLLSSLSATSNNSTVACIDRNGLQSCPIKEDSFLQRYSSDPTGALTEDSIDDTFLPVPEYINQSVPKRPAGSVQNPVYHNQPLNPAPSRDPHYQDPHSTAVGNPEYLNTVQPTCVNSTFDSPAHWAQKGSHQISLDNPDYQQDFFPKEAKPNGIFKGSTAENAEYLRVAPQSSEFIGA

IC50 [1] [nM]	GI50 [2] [nM]	SMILES
2.1	98	C#Cc1c(-c2cnc3ccccc3c2)c2c(N)ncnc2n1C12CCC(NC(=O)c3ccccc3)(CC1)C2 [Example 1, N-(4-(4-Amino-6-ethynyl-5-(quinolin-3-yl)-7H-pyrrolo[2,3-d]pyrimidin-7-yl)bicyclo-[2.2.1]heptan-1-yl)benzamide]
2.6	59	C#Cc1c(-c2cnc3ccccc3c2)c2c(N)ncnc2n1C12CCC(NC(=O)c3noc(C)n3)(CC1)C2 [Example 36, N-(4-(4-Amino-6-ethynyl-5-(quinolin-3-yl)-7H-pyrrolo[2,3-d]pyrimidin-7-yl)-bicyclo-[2.2.1]heptan-1-yl)-5-methyl-1,2,4-oxadiazole-3-carboxamide]
